How the values were obtained:
[1] = molecular target: Serine/threonine-protein kinase Chk2 (Homo sapiens) (UniProt O96017); assay: Inhibition of CHK2 (unknown origin) at 30 uM by microfluidic assay relative to control
[2] = molecular target: Proto-oncogene tyrosine-protein kinase Src (Homo sapiens) (UniProt P12931); assay: Inhibition of SRC (unknown origin) at 30 uM by microfluidic assay relative to control
[3] = molecular target: Ribosomal protein S6 kinase alpha-1 (Homo sapiens) (UniProt Q15418); assay: Inhibition of RSK1 (unknown origin) at 30 uM by microfluidic assay relative to control
Ribosomal protein S6 kinase alpha-1 (Homo sapiens), sequence (Q15418 whole entry): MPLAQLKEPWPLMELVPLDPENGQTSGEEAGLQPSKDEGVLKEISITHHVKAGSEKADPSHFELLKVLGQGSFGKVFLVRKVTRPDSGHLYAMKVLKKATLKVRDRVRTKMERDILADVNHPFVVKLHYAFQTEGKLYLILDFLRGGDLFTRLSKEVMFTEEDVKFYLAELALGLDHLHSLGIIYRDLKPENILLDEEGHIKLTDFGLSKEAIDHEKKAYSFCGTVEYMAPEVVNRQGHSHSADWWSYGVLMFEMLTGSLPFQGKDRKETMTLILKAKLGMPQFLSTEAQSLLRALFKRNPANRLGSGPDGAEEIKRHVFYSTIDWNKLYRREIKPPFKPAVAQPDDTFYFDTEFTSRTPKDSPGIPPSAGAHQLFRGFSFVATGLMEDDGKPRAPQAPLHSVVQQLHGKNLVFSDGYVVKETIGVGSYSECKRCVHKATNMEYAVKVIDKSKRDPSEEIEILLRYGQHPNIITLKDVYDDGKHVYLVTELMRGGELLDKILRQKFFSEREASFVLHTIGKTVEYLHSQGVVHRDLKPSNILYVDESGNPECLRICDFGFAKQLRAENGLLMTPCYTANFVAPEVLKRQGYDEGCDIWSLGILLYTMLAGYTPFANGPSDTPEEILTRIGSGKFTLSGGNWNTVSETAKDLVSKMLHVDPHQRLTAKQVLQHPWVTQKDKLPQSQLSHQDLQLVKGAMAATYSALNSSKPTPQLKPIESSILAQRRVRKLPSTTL

[4] = molecular target: Insulin receptor (Homo sapiens) (UniProt P06213); assay: Inhibition of InsR (unknown origin) at 30 uM by microfluidic assay relative to control
Insulin receptor (Homo sapiens), sequence (P06213 28-758 limits assumed): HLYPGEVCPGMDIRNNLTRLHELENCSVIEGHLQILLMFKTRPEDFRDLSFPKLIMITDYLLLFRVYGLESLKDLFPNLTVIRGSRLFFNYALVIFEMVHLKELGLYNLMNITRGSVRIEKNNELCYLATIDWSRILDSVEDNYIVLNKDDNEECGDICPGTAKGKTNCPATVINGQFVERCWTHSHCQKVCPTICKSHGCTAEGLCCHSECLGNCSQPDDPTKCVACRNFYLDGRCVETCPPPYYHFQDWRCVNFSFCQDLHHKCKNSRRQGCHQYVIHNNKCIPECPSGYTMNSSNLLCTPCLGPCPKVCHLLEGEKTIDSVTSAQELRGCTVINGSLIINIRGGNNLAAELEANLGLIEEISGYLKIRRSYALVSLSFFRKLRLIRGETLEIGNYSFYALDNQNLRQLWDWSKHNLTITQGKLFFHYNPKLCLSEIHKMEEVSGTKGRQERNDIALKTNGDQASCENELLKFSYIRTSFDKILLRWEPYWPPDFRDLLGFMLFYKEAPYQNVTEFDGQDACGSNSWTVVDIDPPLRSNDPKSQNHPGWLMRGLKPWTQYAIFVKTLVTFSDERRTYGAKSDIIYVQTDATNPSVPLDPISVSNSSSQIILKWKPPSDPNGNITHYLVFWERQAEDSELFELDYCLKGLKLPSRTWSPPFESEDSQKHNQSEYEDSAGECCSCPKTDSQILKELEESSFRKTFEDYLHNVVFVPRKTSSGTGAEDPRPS
Insulin receptor (Homo sapiens), sequence (P06213 763-1382 limits assumed): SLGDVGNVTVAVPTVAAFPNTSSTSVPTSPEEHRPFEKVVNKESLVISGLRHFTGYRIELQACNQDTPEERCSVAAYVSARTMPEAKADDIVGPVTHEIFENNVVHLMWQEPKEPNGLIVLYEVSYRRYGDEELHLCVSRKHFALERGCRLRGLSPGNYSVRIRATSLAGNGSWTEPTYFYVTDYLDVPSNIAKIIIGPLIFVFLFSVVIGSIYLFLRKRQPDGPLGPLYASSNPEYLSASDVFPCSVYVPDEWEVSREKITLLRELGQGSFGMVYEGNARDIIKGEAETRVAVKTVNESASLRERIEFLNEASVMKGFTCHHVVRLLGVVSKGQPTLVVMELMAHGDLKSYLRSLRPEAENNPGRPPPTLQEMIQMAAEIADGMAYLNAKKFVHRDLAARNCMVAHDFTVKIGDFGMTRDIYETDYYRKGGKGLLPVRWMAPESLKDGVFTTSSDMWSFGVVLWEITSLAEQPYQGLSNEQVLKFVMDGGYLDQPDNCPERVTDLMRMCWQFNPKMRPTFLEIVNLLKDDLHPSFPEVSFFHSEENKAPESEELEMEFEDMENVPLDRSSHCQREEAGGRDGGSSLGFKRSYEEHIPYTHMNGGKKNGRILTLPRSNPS

[5] = molecular target: Vascular endothelial growth factor receptor 2 (Homo sapiens, UniProt P35968); assay: Inhibition of VEGFR-2 (unknown origin) at 30 uM by microfluidic assay relative to control
Vascular endothelial growth factor receptor 2, sequence (P35968 whole entry): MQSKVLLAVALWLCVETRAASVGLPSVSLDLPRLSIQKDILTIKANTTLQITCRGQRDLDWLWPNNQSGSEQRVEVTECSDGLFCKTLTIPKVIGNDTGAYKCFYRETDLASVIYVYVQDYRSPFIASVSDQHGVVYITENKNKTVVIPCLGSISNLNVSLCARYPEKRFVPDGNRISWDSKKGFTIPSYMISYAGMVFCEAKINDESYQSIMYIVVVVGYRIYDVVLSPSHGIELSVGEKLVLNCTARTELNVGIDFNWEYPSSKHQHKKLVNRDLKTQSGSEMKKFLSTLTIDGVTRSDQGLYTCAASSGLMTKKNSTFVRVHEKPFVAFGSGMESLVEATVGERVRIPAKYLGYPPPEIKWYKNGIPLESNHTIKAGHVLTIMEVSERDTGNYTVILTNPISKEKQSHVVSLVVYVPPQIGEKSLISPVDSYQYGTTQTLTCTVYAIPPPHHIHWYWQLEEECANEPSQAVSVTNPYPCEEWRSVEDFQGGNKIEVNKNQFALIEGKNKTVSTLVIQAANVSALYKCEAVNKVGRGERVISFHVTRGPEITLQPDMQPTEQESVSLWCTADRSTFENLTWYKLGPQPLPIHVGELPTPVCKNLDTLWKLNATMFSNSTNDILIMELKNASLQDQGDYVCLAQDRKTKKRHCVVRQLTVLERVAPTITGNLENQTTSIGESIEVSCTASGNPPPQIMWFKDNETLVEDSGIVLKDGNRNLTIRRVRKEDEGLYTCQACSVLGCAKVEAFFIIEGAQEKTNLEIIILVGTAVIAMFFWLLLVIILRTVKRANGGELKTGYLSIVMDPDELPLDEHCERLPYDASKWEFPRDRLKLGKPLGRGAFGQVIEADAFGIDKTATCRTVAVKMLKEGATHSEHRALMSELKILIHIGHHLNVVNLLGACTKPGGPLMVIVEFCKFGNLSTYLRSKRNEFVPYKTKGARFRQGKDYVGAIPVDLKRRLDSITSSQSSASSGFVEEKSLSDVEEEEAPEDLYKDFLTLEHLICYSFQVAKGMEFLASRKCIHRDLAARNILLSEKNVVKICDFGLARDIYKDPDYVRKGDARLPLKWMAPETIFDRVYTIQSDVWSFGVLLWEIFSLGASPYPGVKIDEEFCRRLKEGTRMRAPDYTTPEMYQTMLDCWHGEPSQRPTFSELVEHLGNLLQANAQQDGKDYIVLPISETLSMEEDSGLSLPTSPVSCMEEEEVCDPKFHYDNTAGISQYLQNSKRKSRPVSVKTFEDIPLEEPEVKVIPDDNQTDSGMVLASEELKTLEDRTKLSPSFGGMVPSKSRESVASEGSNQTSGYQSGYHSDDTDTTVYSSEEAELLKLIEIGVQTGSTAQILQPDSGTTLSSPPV

[6] = molecular target: Tyrosine-protein kinase Lyn (Homo sapiens) (UniProt P07948); assay: Inhibition of LYN (unknown origin) at 30 uM by microfluidic assay relative to control
Tyrosine-protein kinase Lyn (Homo sapiens), sequence (P07948 2-512 limits assumed): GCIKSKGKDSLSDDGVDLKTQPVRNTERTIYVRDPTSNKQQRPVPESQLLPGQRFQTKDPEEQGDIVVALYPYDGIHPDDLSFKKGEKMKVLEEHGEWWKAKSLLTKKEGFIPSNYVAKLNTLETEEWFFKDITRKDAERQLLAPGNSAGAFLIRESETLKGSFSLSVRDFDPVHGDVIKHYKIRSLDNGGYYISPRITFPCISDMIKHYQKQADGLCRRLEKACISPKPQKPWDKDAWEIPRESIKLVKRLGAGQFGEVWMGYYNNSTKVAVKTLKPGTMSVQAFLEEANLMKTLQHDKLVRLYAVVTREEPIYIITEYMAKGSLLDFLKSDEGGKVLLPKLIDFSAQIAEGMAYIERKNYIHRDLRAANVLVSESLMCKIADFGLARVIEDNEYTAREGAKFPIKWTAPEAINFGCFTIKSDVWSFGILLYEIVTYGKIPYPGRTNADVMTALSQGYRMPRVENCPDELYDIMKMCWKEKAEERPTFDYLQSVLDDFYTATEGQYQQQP

[7] = molecular target: T1, Serine/threonine-protein kinase D2 (Homo sapiens) (UniProt Q9BZL6); assay: Inhibition of PKD2 (unknown origin) at 30 uM by microfluidic assay relative to control
T1 sequence (whole entry): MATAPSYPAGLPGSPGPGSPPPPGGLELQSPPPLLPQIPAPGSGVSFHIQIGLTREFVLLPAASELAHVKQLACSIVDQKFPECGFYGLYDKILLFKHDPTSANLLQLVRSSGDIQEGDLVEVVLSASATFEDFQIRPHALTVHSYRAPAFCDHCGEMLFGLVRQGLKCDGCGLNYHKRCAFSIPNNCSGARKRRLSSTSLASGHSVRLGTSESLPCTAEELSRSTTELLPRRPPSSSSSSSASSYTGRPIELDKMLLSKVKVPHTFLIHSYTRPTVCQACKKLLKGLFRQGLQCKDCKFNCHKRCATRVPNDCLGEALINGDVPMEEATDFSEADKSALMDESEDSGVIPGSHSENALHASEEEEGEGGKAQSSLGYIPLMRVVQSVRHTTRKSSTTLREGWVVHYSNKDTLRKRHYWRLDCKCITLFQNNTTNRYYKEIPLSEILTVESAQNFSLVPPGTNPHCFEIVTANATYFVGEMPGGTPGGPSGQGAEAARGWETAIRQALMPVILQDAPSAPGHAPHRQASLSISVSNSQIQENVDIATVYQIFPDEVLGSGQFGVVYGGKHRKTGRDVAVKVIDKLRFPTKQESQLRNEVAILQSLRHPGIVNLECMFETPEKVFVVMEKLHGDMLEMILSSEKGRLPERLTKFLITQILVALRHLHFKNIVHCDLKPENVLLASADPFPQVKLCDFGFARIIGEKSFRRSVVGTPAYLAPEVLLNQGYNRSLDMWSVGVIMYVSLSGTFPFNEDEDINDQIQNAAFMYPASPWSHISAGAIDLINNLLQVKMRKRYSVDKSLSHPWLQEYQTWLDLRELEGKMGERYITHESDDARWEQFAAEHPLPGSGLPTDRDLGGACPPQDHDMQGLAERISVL

[8] = species: Homo sapiens; assay: Selectivity index, ratio of IC50 for VEGFR-2 (unknown origin) to IC50 for CHK1 (unknown origin)
[9] = molecular target: Epidermal growth factor receptor (Homo sapiens, UniProt P00533); assay: Inhibition of EGFR (unknown origin) by microfluidic assay relative to control
[10] = species: Homo sapiens; assay: Selectivity index, ratio of IC50 for EGFR (unknown origin) to IC50 for CHK1 (unknown origin)

Proto-oncogene tyrosine-protein kinase Src (Homo sapiens), sequence (P12931 2-536 limits assumed): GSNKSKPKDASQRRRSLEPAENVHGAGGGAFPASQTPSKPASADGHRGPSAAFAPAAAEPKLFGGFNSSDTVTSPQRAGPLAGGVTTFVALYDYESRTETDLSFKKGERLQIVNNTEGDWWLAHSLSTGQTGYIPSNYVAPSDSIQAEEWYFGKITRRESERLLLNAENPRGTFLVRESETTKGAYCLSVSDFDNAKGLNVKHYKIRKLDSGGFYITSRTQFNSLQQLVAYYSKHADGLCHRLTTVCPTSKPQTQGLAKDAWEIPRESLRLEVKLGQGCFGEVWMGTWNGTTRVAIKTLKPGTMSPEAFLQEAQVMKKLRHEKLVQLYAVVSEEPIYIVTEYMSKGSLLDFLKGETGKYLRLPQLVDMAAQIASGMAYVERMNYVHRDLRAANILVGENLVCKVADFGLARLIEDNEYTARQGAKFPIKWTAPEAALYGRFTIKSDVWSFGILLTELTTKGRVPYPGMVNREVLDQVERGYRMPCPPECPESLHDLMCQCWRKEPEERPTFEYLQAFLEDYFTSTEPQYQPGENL
Serine/threonine-protein kinase Chk2 (Homo sapiens), sequence (O96017 whole entry): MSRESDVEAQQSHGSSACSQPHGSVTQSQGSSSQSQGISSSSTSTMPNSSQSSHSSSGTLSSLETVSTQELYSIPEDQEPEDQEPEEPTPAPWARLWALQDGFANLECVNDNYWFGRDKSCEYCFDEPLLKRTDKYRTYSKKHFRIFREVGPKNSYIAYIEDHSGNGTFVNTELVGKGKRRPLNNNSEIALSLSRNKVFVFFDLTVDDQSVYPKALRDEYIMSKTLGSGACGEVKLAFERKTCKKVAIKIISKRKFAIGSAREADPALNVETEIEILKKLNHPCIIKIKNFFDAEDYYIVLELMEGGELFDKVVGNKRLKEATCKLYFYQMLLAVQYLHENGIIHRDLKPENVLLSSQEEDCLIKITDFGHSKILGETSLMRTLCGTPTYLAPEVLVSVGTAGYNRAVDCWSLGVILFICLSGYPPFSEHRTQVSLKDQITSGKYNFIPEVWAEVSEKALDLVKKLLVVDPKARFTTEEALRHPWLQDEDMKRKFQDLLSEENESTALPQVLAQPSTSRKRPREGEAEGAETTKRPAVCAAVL

Structure (SMILES)	inhibition [1] [%]	inhibition [2] [%]	inhibition [3] [%]	inhibition [4] [%]	inhibition [5] [%]	inhibition [6] [%]	inhibition [7] [%]	Ratio IC50 [8]	IC50 [9] [µM]	Ratio IC50 [10]
Cc1[nH]c(-c2ccccc2)c(-c2ccccc2)c1-c1nnc(O)c2nn(-c3ccccc3)cc12	24	23	36	12	100	5	32	–	–	–
Cc1[nH]c(-c2ccccc2)c(-c2ccccc2)c1C(=O)c1coc2c1cc(O)c1ccccc12	55	21	4	32	100	34	54	14.7	5.1	16.4
Cc1[nH]c(-c2ccccc2)c(-c2ccccc2)c1C(=O)c1cn(-c2ccccc2)nc1C(=O)Nc1ccccc1	4	33	2	33	100	24	65	–	–	–

— ChEMBL document CHEMBL3739348, “Novel pyrrole derivatives as selective CHK1 inhibitors: design, regioselective synthesis and molecular modeling” (Medchemcomm, 2015)
